Columns and labels:
[1] = biological target: T1, VEGFR/KDR (Homo sapiens, UniProt P35968); assay: VEGFR/KDR kinase inhibition, DELFIA assay; format: biochemical; details: ATP 0.6 uM (2x Km), enzyme 5 nM
T1 construct: made in house; host or cells: Sf9 cells (Spodoptera frugiperda), baculovirus
How it was run: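 DELFIA time-resolved fluorescence readout using Europium-tagged anti-phosphotyrosine antibody after EDTA stop. Kinase reaction on plate-bound poly(Glu4,Tyr) ran 10-30 min at 30° C with 5 nM enzyme and 0.6 uM ATP (2× Km), following 4 min on-ice pre-incubation with compound; IC50 over a concentration range.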

[2] = system: CNV progression; assay: In vivo choroidal neovascularization (CNV) model, laser-induced, intravitreal injection; parameters: species or system Male Brown-Norway rats; details: 240 h; rat, 10 nmol/eye injected on Day 3, CNV area on Day 10, vs vehicle
From the text: This test measures the capacity of compounds to inhibit CNV progression. CNV is the main cause of severe vision loss in patients suffering from age-related macular degeneration (AMD).
Male Brown-Norway rats (Japan Clea Co., Ltd.) were used in these studies.
Rats were anesthetized by intraperitoneal injection of pentobarbital, and the right pupil was dilated with 0.5% tropicamide and 0.5% phenylephrine hydrochloride. The right eye received 6 laser burns between retinal vessels using a slit lamp delivery system of Green laser Photocoagulator (Nidex Inc., Japan), and microscope slide glass with Healon™ (AMO Inc) used as a contact lens. The laser power was 100 or 200 mW for 0.1 second and spot diameter was 100 μm. At the time of laser burn, bubble production was observed, which is an indication of rupture of Bruch's membrane which is important for CNV generation.
Rats were divided into the groups based on their body weight using SAS software (SAS institute Japan, R8.1) after laser irradiation (Day 0). After animals were anesthetized, and the right pupil dilated (as above mentioned), the right eye of the animal received the compound or vehicle by an injection (10 μL/eye) at doses of 10 or 3 nmol/eye on Day 3. The compounds were dissolved or suspended in CBS, PBS, or other adequate vehicles before injection.
On Day 10, the animals were anesthetized with ether, and high molecular weight fluorescein isothiocyanate (FITC)-dextran (SIGMA, 2×10^6 MW) was injected via a tail vein (20 mg/rat). About 30 min after FITC-dextran injection, animals were euthanized by ether or carbon dioxide, and the eyes were removed and fixed with 10% formaline neutral buffer solution. After over 1 hour of fixation, RPE-choroid-sclera flat mounts were obtained by removing cornea, lens and retina from the eyeballs. The flat mounts were mounted in 50% glycerol on a microscope slide, and the portion burned by laser was photographed using a fluorescence microscope (Nikon Corporation, excitation filter:465-495 nm, absorption filter:515-555 nm). The CNV area was obtained by measurement of hyper-fluorescence area observed on the photograph using Scion image.
The average CNV area of 6 burns was used as an individual value of CNV area, and the average CNV area of compound treated group was compared with that of the vehicle-treated group.

T1 sequence (P35968 806-1356): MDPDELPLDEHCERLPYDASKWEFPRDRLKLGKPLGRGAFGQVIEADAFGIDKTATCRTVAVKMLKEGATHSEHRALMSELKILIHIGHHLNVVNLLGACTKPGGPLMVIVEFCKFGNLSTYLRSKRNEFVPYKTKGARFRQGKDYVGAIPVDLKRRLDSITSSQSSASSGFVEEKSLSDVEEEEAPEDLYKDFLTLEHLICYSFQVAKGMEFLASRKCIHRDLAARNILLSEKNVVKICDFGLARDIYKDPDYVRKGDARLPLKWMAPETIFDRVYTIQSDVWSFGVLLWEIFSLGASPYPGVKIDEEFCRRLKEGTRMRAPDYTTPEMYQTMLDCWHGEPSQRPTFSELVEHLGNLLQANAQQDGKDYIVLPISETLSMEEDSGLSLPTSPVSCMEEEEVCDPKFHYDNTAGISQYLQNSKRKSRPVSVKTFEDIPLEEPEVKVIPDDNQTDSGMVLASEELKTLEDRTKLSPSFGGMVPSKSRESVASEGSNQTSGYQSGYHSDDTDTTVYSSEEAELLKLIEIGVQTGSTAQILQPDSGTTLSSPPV

Work on `COCCN(Cc1ccc(-c2cc3nccc(Oc4ccc(NC(=O)NC5CC5)cc4F)c3s2)nc1)C(=O)CS(C)(=O)=O` [Compound 90, N-((6-(7-(4-(3-cyclopropylureido)-2-fluorophenoxy)thieno[3,2-b]pyridin-2-yl)pyridin-3-yl)methyl)-N-(2-methoxyethyl)-2-(methylsulfonyl)acetamide] yielded an IC50 [1] of less than 50 nM and an inhibition in vivo at 10 nmol/eye [2] of no less than 60%.

In the case of `O=C(Nc1ccc(Oc2ccnc3cc(-c4ccc(CNCCO)cn4)sc23)c(F)c1)NC1CC1` [Compound 9, 1-cyclopropyl-3-(3-fluoro-4-(2-(5-((2-hydroxyethylamino)methyl)pyridin-2-yl)-thieno[3,2-b]pyridin-7-yloxy)phenyl)urea], the IC50 [1] is reported as less than 50 nM and the inhibition in vivo at 10 nmol/eye [2] is reported as no less than 60%.

For `CN(C)C(=O)CCN1CCN(Cc2ccc(-c3cc4nccc(Oc5ccc(NC(=O)NC6CC6)cc5F)c4s3)nc2)CC1` [Compound 83, 3-(4-((6-(7-(4-(3-cyclopropylureido)-2-luorophenoxy)thieno-[3,2-b]pyridin-2-yl)pyridin-3-yl)melhyl)piperazin-l-yl)-N,N-dimethyl-propanamide], the IC50 [1] was less than 50 nM and the inhibition in vivo at 10 nmol/eye [2] was 40 to 60%.

With `COCCNCCc1ccc(-c2cc3nccc(Oc4ccc(NC(=O)NC5CC5)cc4F)c3s2)nc1` [Compound 288, 1-cyclopropyl-3-(3-fluoro-4-(2-(5-(2-(2-methoxyethylamino)ethyl)pyridin-2-yl)thieno[3,2-b]pyridin-7-yloxy)phenyl)urea] the IC50 [1] was less than 50 nM and the inhibition in vivo at 10 nmol/eye [2] was 40 to 60%.

`O=C(Nc1ccc(Oc2ccnc3cc(-c4ccc(CN5CCCS5(=O)=O)cn4)sc23)c(F)c1)NC1CC1` [Compound 142, 1-cyclopropyl-3-(3-fluoro-4-(2-(5-(2,2-dioxo-2-thiapyrrolidin-1-ylmethyl)pyridin-2-yl)thieno[3,2-b]pyridin-7-yloxy)phenyl)urea] showed an IC50 [1] of less than 50 nM and an inhibition in vivo at 10 nmol/eye [2] of 40 to 60%.
